Earlier results on two compounds are cited in patent US20150216903A1, “COMPOUNDS FOR IMPROVED VIRAL TRANSDUCTION” (BLUEBIRD BIO, INC., priority 2012, published 2015).

For data set [1], the system named is HIV. The note with it: previous publications (Hayes 2002); cited from earlier work.
For data set [2] the following is noted: Raz, FEBS Letters 1972; cited from earlier work.

Take `CCCCC[C@H](O)/C=C/[C@H]1C=CC(=O)[C@@H]1C/C=C\CCCC(=O)O` [PGA2, prostaglandin A2]: in data set [1], the “effect on HIV replication” value was “inhibits HIV replication”.

`CCCCC[C@H](O)/C=C/[C@H]1[C@H](O)CC(=O)[C@@H]1C/C=C\CCCC(=O)O` [PGE2, prostaglandin E2]: the “effect on HIV replication” value in data set [1] is reported as “antagonistic to HIV replication”. Also, the “conversion upon exposure to plasma” value in data set [2] was “rapidly converts to prostaglandin A2 (PGA2)”.
